# Measurements as given in patent US6043283A, “Tyramine compounds and their neuronal effects” (priority 1997, dated 2000).
# “Also recorded” adds a separate entry of the source. Read-outs that look alike come from different tables or passages of the source.
# How the values were obtained:
# [1] = test system: NMDA receptor; assay: whole cell current elicited by NMDA in Xenopus oocytes injected with NMDA R1 and R2 subunit cRNAs; assay type: cell-based; settings: FIG. 34
# From the text: FIG. 34 is a graph shorting the % maximal current peak elicited by NMDA, octopamine and tyramine compounds in the presence of a given NMDA concentration. […].
# The precise mechanism of NTox that leads to the destruction of neurons is only partially characterized. Based upon extensive testing with receptor antagonists, it has been discovered that two classes of neurotransmitter receptors are involved--the n-methyl D-aspartate (NMDA) class of […] receptors and the Muscarinic (M receptors) class of cholinergic receptors. […] […]. Further study to determine if tyramine compounds act upon the NMDA receptor itself involved expression of the NMDA receptor complex in Xenopus oocytes and measurement of ionic fluxes across the oocyte membrane that are elicited by NMDA. […] […]. […] Thus, tyramine compounds appear to have several actions, one of which is upon the NMDA receptor.
# [2] = test system: AMAA; assay: protection of neurons against AMAA; assay type: cell-based; settings: FIG. 32
# From the text: (§1) FIG. 32 is a graph showing the specificity of tyramine compounds to NTox. […]
# [3] = test system: NTox; assay: protection of neurons against isolated NTox applied directly; assay type: cell-based
# From the text: FIG. 32 is a graph showing the specificity of tyramine compounds to NTox. […].
# Initial studies to characterize the neuroprotective effect of tyramine compounds employed microglia-neuron co-culture assays in the presence of Aβ or isolated senile plaques. Inhibition of neuron killing in […]--inhibition of microglial activation by Aβ or plaques; inhibition of NTox production and release by microglia; or inhibition of action of NTox upon neurons. […] Effective doses in the low nmolar range show the tyramine compounds to be very potent agents compared with low μmolar range of other neuroprotective drugs under development for neurological disorders.
# [4] = test system: human microglia stimulated with S5; assay type: cell-based;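 note: drugs applied at 10 µM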
# [5] = test system: Aβ1-42-stimulated microglia; assay type: cell-based, rat; settings: for blocking of Aβ1-42 induced microglial neurotoxicity by peptides: 10 μmoles/liter peptide, 1 μmole/liter Aβ1-42
# In short: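 E18 rat hippocampal cultures, microglia depleted with saporin–ac-LDL (10 μg/ml, 12 h) on day 14, then given test substances at 10μM with or without exogenous microglia (100,000 cells) for 72 h. Neurons immunostained (NF plus MAP-2) and nuclei counted by fluorescence microscopy; survival expressed as % of parallel untreated controls.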
# [6] = test system: quinolinic acid (QUIN); assay: protection of neurons against quinolinic acid; assay type: cell-based; settings: QUIN (100 μM in FIG. 13)
# From the text: as §1
# [7] = test system: rat microglia / hippocampal neurons; settings: for neuron loss with conditioned media from microglia: 10% vol/vol conditioned media, microglia with 1 μmole/l peptide; for induction of neurotoxic microglia / neuron killing: rat microglia, mostly 1 μmole/l; for killing of neurons: rat, hippocampal neurons, 72 h, 1 µM
# [8] = test system: rat microglia; assay type: binding; settings: 6 hours, 37° C.
# Protocol: Synthetic Aβ peptides were linked to Sepharose beads (Pharmacia) in coupling buffer (0.1 M NaHCO3, 0.5 M NaCl, pH 8.3) containing 20% DMSO. This solution was combined with an appropriate volume of CNBr-activated Sepharose 4B (10 mg protein per ml of bead; Pharmacia protocol) and mixed overnight on a platform mixer at room temperature. Remaining active groups on the beads were blocked by 1.0 M glycine and excess uncoupled peptides removed from this bead-peptide complex by washing with three cycles of alternating pH (0.1 M acetate buffer, pH 4.0, followed by 0.1 M Tris-HCL buffer, pH 8.0, each buffer containing 0.5 M NaCl). Coupled beads (10^4 per ml) were placed in 35 mm culture dishes covered with 250,000 adhering microglia at 37° C. in 1.5 ml N2 medium in accordance with the procedure of Giulian et al., 1995a. The numbers of microglia which detached from the plate and bound to coupled beads were determined at the end of a 6 hour incubation period by inverted phase microscopy with 100 beads scored from each of three sister cultures. Glycine and bovine serum albumin (BSA) coupled beads were used as controls.
# [9] = test system: rat microglia; assay: binding of Aβ-coupled microspheres to microglia; settings: 4 hours at 37° C. (72 h in FIG. 23)
# [10] = test system: reactive microglia in rat neocortex; assay: brain inflammatory response after infusion into neocortex of adult rat; assay type: in vivo; settings: 0.5 nmoles Aβ1-42, co-infusion of 1.0 nmole peptide; 5 days
# [11] = test system: human microglia; assay: nitrite/nitrate production, human microglia; assay type: cell-based
# Protocol: Nitrites and nitrates, stable byproducts of nitric oxide synthetase (NOS) served as markers for nitric oxide (NO) synthesis (Ignarro, 1990). […]; for 24 to 72 hours incubated in the presence of neuritic/core plaques or Aβ peptides) were measured by the Griess method set forth by Beckman et al., 1990 against a standard curve ranging from 0.1 to 50.0 μM nitrate.
# [12] = test system: human microglia; assay: induction of neuron-killing human microglia; assay type: cell-based; settings: 1 μmole/liter synthetic peptides
# [13] = assay type: physicochemical; settings: chemically defined culture media, 37° C.; Table 2
# From the text: Solubility of peptides is described for chemicallydefined culture media a […]
# [14] = test system: rat microglia; assay: microglial morphology / reactivity; assay type: cell-based
# Protocol: Equal amounts of plaque protein (normalized to total amine content at 400 μmoles/l) were added to neuronal cultures in the presence (100,000 cells per culture) or absence of rat microglia. […] The chromatogram was developed with 80% glass distilled formic acid at a flow rate of 0.3 ml per minute and monitored at 280 nm.
# Bright field photomicrographs of rat microglia cultures exposed to peak S1 (FIG. 20A) or peak S5 (FIG. 20B) and immuno-stained for the presence of Aβ.
# FIGS. 22A-F depict cellular responses upon exposure to synthetic Aβ peptides. […] Bar=25 microns.
# [15] = test system: NTox released by Aβ1-42-stimulated microglia (neuron killing); assay: cells; assay type: cell-based, rat; settings: 72 hours; FIG. 30 experiment
# [16] = test system: plaque-stimulated microglia; assay: blocking of plaque-induced microglial neurotoxicity; assay type: cell-based, rat; settings: FIG. 16C
# [17] = test system: kidney cells; assay: competition with microspheres coupled to Aβ1-42, kidney cells; assay type: binding; settings: 4 hours at 37° C.
# [18] = test system: macrophages; assay: competition with microspheres coupled to Aβ1-42, macrophages; assay type: binding; settings: 4 hours at 37° C.
# [19] = test system: microglia; assay: inhibition of SpheresAβ1-42 binding to microglia; set-up: species or system rat; settings: 10 μmoles/l, 4 hours, 37° C.
# [20] = test system: astroglia; assay type: cell-based, rat; settings: 100 μmoles/l
# From the text: FIGS. 21A-D display toxic actions of synthetic Aβ peptides upon neurons. […]. There is, however, a generalized cytotoxic action by Aβ25-35 at>30 μmoles/l on both neurons (FIG. 21A) and astroglia (FIG. 21B). In the absence of microglia, none of the Aβ peptides (at 1 μmole/l) produce destruction of neurons. […] These observations point to the need to deplete neuron cultures of microglia when assessing mechanisms of Aβ toxicity. […]; FIG. 21E).
# . Briefly, hippocampal cells obtained from embryonic stage 18 rat fetuses were dispersed mechanically in the presence of 0.125% trypsin and plated onto poly-L-lysine coated glass coverslips in 24 well plates at 250,000 cells per well (resulting in adhering cell densities of about 1250 cells per mm^2) in chemically-defined N2 culture media containing 5% fetal bovine serum. Gradual reduction of serum began on day 10 in vitro with daily 1:1 volume replacements with chemically-defined media, until a final concentration of 0.6% serum was achieved. […]
# On day 14 of culture, immediately following saporin treatment, test substances were added to the hippocampal cultures. […] Immuno-labeled cells per field and nuclei per field were scored at 200X magnification using fluorescence microscopy. Data were expressed as % mean survival expressed in terms of parallel untreated control cultures after scoring at least 20 randomly selected fields for each of 3 coverslips.
# [21] = test system: hippocampal neurons; assay type: cell-based, rat; settings: 100 μmoles/l
# [22] = test system: scavenger receptor II mRNA / microglia; assay: microsphere implants in brain neocortex: reactive microglia and scavenger receptor mRNA; assay type: in vivo
# From the text: FIGS. 7A, B, and C show SpheresAβ1-42 in vivo. […]. […] Microglia were visualized by uptake of fluorescent labeled acetylated LDL, DiI-ac-LDL Bar=40 μm, FIG. 7A; 25 μm FIG. 7B and C.
molecule,measurement,setting,value
NC(CCCP(=O)(O)O)C(=O)O (stereo not drawn) [AP5],effect on current elicited by NMDA,[1],could be blocked
same,protection against AMAA,[2],prevented from killing neurons
same,"neuroprotective effects against NTox, concentration range",[3],~100 nM
same,inhibition of killing action of NTox applied to neurons,"[3]; isolated NTox, FIGS. 13, 32",NTox can be blocked
same,"drug blockade of neuron killing, human microglia",[4],prevented neuron death
same,"drug blockade of neuron killing, rat microglia",[5],prevented neuronal loss; also recorded: prevented neuron death
same,protection against quinolinic acid,[6],prevented from killing neurons
Aβ1-42: synthetic human β-amyloid peptide 1-42,"neuron killing, microglia separated from neurons (no contact)",[7],stimulated microglia to destroy neurons
same,neuron killing,"[7]; 100 nmoles/liter, rat microglia 500 cells per mm^2",destroyed nearly all neurons
same,neuron loss with conditioned media from microglia,[7],Significant neuron loss occurred
same,neuron kill,"[7]; ""aged"" Aβ1-42",77.5%±2.6%
same,neuron kill,[7]; fresh Aβ1-42,75.1%±5.8%
same,induction of neurotoxic microglia / neuron killing,[7]; listed as 1-42,induced toxic effects
same,killing of neurons,[7],70-80%
same,microglial adherence to coupled Sepharose beads,[8],anchored to beads; also recorded: provided an anchoring site for microglia
same,binding of peptide-coupled microspheres to microglia,[9],marked glial binding; also recorded: readily bind; also recorded: readily engulfed by microglia
same,local brain inflammatory response,[10],produces an inflammatory response
same,"release of nitrate or nitrite, human microglia",[11],did not bring about release of nitrate or nitrites
same,induction of neurotoxic human microglia,[12],very potent inducers of neurotoxic human microglia; also recorded: stimulated release of neurotoxin from human microglia
same,Solubility,[13],very insoluble
same,microglial morphology / reactivity,[14],morphological changes with retraction of processes
same,neurons destroyed by Aβ-stimulated microglia,[15],about 65%
"Aβ10-16: Aβ peptide residues 10-16 (YEVHHQK; Amyloid-beta protein 42; UniProt P05067 681-687, looked up, fragment)",blocking of plaque-induced microglial toxicity by peptides,[16],blocked plaque-induced toxicity in vitro
same,"competition with Aβ1-42 microspheres, kidney cells",[17],no changes in binding
same,binding of peptide-coupled microspheres to microglia,[9],readily bind; also recorded: able to bind to microglia
same,"competition with Aβ1-42 microspheres, macrophages",[18],competition occurs with the macrophages in a dose dependent manner
same,inhibition of SpheresAβ1-42 binding by peptides,[19],effectively prevented
same,blocking of Aβ1-42 induced microglial neurotoxicity by peptides,[5],blocked neurotoxin production
same,IC50,"[5]; read-out: ED50 (blocking of Aβ1-42 induced neurotoxicity), FIG. 16B",~30 nM
"Aβ17-43: Aβ peptide residues 17-43 (LVFFAEDVGSNKGAIIGLMVGGVVIAT; Amyloid-beta protein 42; UniProt P05067 688-714, looked up, fragment)",neuron loss with conditioned media from microglia,[7],undamaged
same,inhibition of SpheresAβ1-42 binding by peptides,[19],did not
same,induction of neurotoxic human microglia,[12],inactive
same,blocking of Aβ1-42 induced microglial neurotoxicity by peptides,[5],did not
same,microglial morphology / reactivity,[14],does not alter microglial morphology
"Aβ25-35: Aβ peptide residues 25-35 (GSNKGAIIGLM; Amyloid-beta protein 42; UniProt P05067 696-706, looked up, fragment)",binding of peptide-coupled microspheres to microglia,[9],little cell binding
same,destruction of glia,[20],~90%
same,destruction of neurons,[21],~90%
same,Solubility,[13],soluble
SpheresAβ1-42: Aβ1-42 coupled to (fluorescent) microspheres,increase in scavenger receptor mRNA vs undamaged tissue or SphereBSA,[22]; two weeks after implantation,5 fold
same,reactive microglia around implanted spheres,[22]; weeks after implantation,chronically stimulate the presence of reactive cells
same,induction of neurotoxic microglia / neuron killing,[7],induced neuron killing
same,killing of neurons,[7],70-80%
same,binding of peptide-coupled microspheres to microglia,[9],rapidly engulfed by cultured microglia
same,binding of peptide-coupled microspheres to microglia,[9]; listed as Aβ1-42-spheres,localized specifically within DiI-ac-LDL(+) microglia
same,binding of peptide-coupled microspheres to microglia,[9]; listed as Aβ1-42 coupled-microspheres,readily taken up by microglia
